Measurements taken from patent US20260001886A1, “ENPP1 INHIBITORS I” (RE Ventures I, LLC, priority 2024, published 2026).

Tests used:
human CA-II (CA2) [1] = target: T1, human CA-II (CA2) (Homo sapiens (Human), UniProt P00918); assay: biochemical
Experimental: (§1) Cytiva Biacore S200, T200 and 3000 machines were used for all SPR experiments. […] For carbonic anhydrases, data were collected at a constant temperature of 25° C. Human CA-I (CA1) or human CA-II (CA2) was captured via standard EDC/NHS protocol on a Biacore CM5 chip using standard protocols in HBS-N buffer (10 mM HEPES (pH 7.4), 150 mM NaCl) at ˜2000 RU. The experiments were run in PBS buffer containing 0.05% Tween 20 and 3% DMSO. All compounds were initially screened at concentrations ranging from 23 nM to 50 µM or 4.6 nM to 10 µM, injecting from the lowest to highest concentrations and adjusting appropriately for each compound for repeat experiments. Scrubber 2 (Biologic software) was used to process and analyse SPR data. […] Data for the inhibitors were referenced to those for a blank surface and blank injections to normalise for non-specific binding and drift. A DMSO calibration was run to remove excluded volume effect of binding responses between reference and target surface.

human CA-I (CA1) = human CA-I (CA1) (Homo sapiens (Human), UniProt P00915); assay: Surface plasmon resonance, carbonic anhydrase I; details: 25° C., CM5 chip
Experimental: as §1

human CA-II (CA2) [2] = target: T1, human CA-II (CA2); assay: Surface plasmon resonance, carbonic anhydrase II; details: 25° C., CM5 chip
Experimental: as §1

Human ENPP1 = Human ENPP1 (Homo sapiens (Human), UniProt P22413)
Chain of Human ENPP1 (P22413 whole entry): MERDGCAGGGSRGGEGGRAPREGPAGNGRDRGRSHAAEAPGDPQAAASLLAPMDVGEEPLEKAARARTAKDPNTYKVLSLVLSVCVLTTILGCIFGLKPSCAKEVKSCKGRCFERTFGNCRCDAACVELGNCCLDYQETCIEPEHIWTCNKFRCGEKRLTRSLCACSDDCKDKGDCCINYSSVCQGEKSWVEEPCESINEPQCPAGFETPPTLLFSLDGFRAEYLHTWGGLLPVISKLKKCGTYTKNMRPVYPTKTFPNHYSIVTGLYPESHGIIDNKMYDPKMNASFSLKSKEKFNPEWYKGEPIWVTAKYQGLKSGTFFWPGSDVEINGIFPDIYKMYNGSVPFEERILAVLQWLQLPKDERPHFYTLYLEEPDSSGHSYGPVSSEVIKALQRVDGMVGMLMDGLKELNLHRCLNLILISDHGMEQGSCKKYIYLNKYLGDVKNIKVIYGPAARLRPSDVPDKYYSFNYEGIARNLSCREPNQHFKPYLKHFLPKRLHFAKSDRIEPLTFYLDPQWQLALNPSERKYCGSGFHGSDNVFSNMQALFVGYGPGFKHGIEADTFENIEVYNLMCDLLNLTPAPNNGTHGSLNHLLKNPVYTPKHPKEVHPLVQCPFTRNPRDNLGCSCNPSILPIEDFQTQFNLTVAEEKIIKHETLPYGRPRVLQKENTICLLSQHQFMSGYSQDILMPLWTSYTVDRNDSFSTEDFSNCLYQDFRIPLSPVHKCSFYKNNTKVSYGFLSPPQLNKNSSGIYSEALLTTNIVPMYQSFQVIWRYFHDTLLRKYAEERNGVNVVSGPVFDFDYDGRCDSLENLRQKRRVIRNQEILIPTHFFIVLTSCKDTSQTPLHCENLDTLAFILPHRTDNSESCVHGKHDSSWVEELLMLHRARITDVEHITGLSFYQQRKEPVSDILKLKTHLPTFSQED
Experimental: ENPP1 catalyses the hydrolysis of ATP into AMP+PPi. AMP production was monitored using Bellbrooks Transcreener AMP/GMP TR-FRET assay kit (Cat No. 3020-10K) according to the manufacturer's instructions. The assay was run with 50 mM Tris pH 7.5, 5 mM MgCl2, 150 mM NaCl, 0.005% Tween20 and distilled H2O. Antibody and tracer were diluted to 2 nM. […] Mouse ENPP1 was run at 15 pM with ATP at 400 nM. AMP produced in the assay by ENPP1 activity competes with a far-red tracer labelled AMP bound to an AMP specific antibody resulting in a decrease in TR-FRET. ENPP1 inhibition reduces AMP production and increases the TR-FRET signal.

Chain of human CA-I (CA1) (P00915 whole entry): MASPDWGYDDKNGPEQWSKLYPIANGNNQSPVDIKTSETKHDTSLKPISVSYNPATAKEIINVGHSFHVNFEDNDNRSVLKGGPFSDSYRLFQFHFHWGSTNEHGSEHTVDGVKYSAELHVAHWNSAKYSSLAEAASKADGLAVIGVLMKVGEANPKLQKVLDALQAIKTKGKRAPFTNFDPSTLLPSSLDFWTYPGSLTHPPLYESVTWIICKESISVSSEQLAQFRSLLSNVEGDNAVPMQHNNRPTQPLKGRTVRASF

Row | SMILES | Kd (human CA-II (CA2) [1]) [µM] | CA1 human SPR pKD (human CA-I (CA1)) | CA2 human SPR pKD (human CA-II (CA2) [2]) | EC50 (Human ENPP1) [µM]
1 | CC(C)c1cn(Cc2ccc(S(C)(=N)=O)cc2)c2cc(C3CC3)nn2c1=O (racemic) [3 Rac] | > 100000 | – | – | –
2 | CC(C)c1cn(Cc2ccc([S@](C)(=N)=O)cc2)c2cc(C3CC3)nn2c1=O (single isomer, unassigned) [Compound 3A] | > 100000 | – | – | –
3 | Cc1cc2n(Cc3ccc([S@](C)(=N)=O)cc3)cc(C(C)C)c(=O)n2n1 (single isomer, unassigned) [Compound 9B] | – | <1 | <1 | –
4 | CC(C)c1cn(Cc2ccc(S(=N)(=O)C(F)F)cc2)c2nc(C3CC3)nn2c1=O (single isomer, unassigned) [Compound 50] | – | – | – | 0.0316
5 | Cc1cc([S@@](C)(=N)=O)ccc1Cn1cc(C(C)C)c(=O)n2nc(C3CC3)cc12 (single isomer, unassigned) [Compound 66] | – | – | – | 0.00126
6 | CC(C)c1cn(Cc2ccc([S@@](=N)(=O)C(C)C)cc2)c2nc(C3CC3)nn2c1=O (single isomer, unassigned) [Compound 68] | – | – | – | 0.00631
7 | CC(C)c1cn(Cc2ccc([S@](C)(=N)=O)cc2F)c2nc(C3CC3)nn2c1=O (single isomer, unassigned) [Compound 69] | – | <1 | <1 | –
8 | Cc1nc2n(C[C@H]3C[C@H]4C[C@@H]3CN4S(N)(=O)=O)cc(-c3cccnc3)c(=O)n2n1 [Compound 2, (1S,4S,5S)-5-((2-methyl-7-oxo-6-(pyridin-3-yl)-[1,2,4]triazolo[1,5-a]pyrimidin-4(7H)-yl)methyl)-2-azabicyclo[2.2.1]heptane-2-sulfonamide] | – | – | – | 0.251
9 | Cc1nn2c(=O)c(C(C)C)cn(C[C@H]3C[C@H]4C[C@@H]3CN4S(N)(=O)=O)c2c1Cl [Compound 4, (1S,4S,5S)-5-((3-chloro-6-isopropyl-2-methyl-7-oxopyrazolo[1,5-a]pyrimidin-4(7H)-yl)methyl)-2-azabicyclo[2.2.1]heptane-2-sulfonamide] | – | 3.0 | 4.9 | –
10 | Cc1nc2n(C[C@H]3C[C@H]4C[C@@H]3CN4S(N)(=O)=O)cc(-c3cccc(F)c3)c(=O)n2n1 [Compound 6, (1S,4S,5S)-5-((6-(3-fluorophenyl)-2-methyl-7-oxo-[1,2,4]triazolo[1,5-a]pyrimidin-4(7H)-yl)methyl)-2-azabicyclo[2.2.1]heptane-2-sulfonamide] | – | 3.0 | 3.6 | 0.1
11 | CC(C)c1cn(Cc2ccc(S(C)(=N)=O)cc2F)c2nc(C3CC3)nn2c1=O (centres unmarked) [Compound 12, 2-cyclopropyl-4-(2-fluoro-4-(S-methylsulfonimidoyl)benzyl)-6-isopropyl-[1,2,4]triazolo[1,5-a]pyrimidin-7(4H)-one] | – | <1 | 3.0 | –
12 | Cc1nc2n(C[C@H]3C[C@H]4C[C@@H]3CN4S(N)(=O)=O)cc(-c3ccc(F)cc3)c(=O)n2n1 [Compound 14, (1S,4S,5S)-5-((6-(4-fluorophenyl)-2-methyl-7-oxo-[1,2,4]triazolo[1,5-a]pyrimidin-4(7H)-yl)methyl)-2-azabicyclo[2.2.1]heptane-2-sulfonamide] | – | <1 | 3.0 | 0.00398
13 | CC(C)c1cn(Cc2ccc(S(C)(=N)=O)c(C(F)(F)F)c2)c2cc(C3CC3)nn2c1=O (centres unmarked) [Compound 20, 2-cyclopropyl-6-isopropyl-4-(4-(S-methylsulfonimidoyl)-3-(trifluoromethyl)benzyl) pyrazolo[1,5-a]pyrimidin-7(4H)-one] | – | – | – | 0.00631
14 | CC(C)c1cn(Cc2ccc(S(C)(=N)=O)cc2)c2nc(OC3CC3)nn2c1=O (centres unmarked) [Compound 25, 2-cyclopropoxy-6-isopropyl-4-(4-(S-methylsulfonimidoyl)benzyl)-[1,2,4]triazolo[1,5-a]pyrimidin-7(4H)-one] | – | – | – | 0.00631
15 | CC(C)c1cn(Cc2c(F)cc(S(C)(=N)=O)cc2F)c2nc(C3CC3)nn2c1=O (centres unmarked) [Compound 26, 2-cyclopropyl-4-(2,6-difluoro-4-(S-methylsulfonimidoyl)benzyl)-6-isopropyl-[1,2,4]triazolo[1,5-a]pyrimidin-7(4H)-one] | – | 3.0 | 3.0 | 0.0126
16 | COCc1nc2n(Cc3ccc(S(C)(=N)=O)cc3)cc(C(C)C)c(=O)n2n1 (centres unmarked) [Compound 33, 6-isopropyl-2-(methoxymethyl)-4-(4-(S-methylsulfonimidoyl)benzyl)-[1,2,4]triazolo[1,5-a]pyrimidin-7(4H)-one] | – | – | – | 0.00794
17 | CC(C)c1cn(C[C@H]2C[C@H]3C[C@@H]2CN3S(N)(=O)=O)c2nc(Cl)nn2c1=O [Compound 34, (1S,4S,5S)-5-((2-chloro-6-isopropyl-7-oxo-[1,2,4]triazolo[1,5-a]pyrimidin-4(7H)-yl)methyl)-2-azabicyclo[2.2.1]heptane-2-sulfonamide] | – | – | – | 0.0158
18 | CC(C)c1cn(C[C@H]2C[C@H]3C[C@@H]2CN3S(N)(=O)=O)c2c3cccnc3nn2c1=O [Compound 41, (1S,4S,5S)-5-((3-Isopropyl-4-oxopyrido[2′,3′: 3,4]pyrazolo[1,5-a]pyrimidin-1 (4H)-yl)methyl)-2-azabicyclo[2.2.1]heptane-2-sulfonamide] | – | 3.0 | 3.0 | –
19 | COc1cccc2c1nn1c(=O)c(C(C)C)cn(C[C@H]3C[C@H]4C[C@@H]3CN4S(N)(=O)=O)c21 [Compound 42, (1S,4S,5S)-5-((3-Isopropyl-7-methoxy-4-oxopyrimido[1,2-b]indazol-1 (4H)-yl)methyl)-2-azabicyclo[2.2.1]heptane-2-sulfonamide] | – | 3.0 | 4.5 | –
20 | CC(C)c1nn2c(=O)c(C(C)C)cn(C[C@H]3C[C@H]4C[C@@H]3CN4S(N)(=O)=O)c2c1F [Compound 43, (1S,4S,5S)-5-((3-Fluoro-2,6-diisopropyl-7-oxopyrazolo[1,5-a]pyrimidin-4(7H)-yl)methyl)-2-azabicyclo[2.2.1]heptane-2-sulfonamide] | – | 3.0 | 4.8 | 0.00398
21 | COc1c(C2CC2)nn2c(=O)c(C(C)C)cn(C[C@H]3C[C@H]4C[C@@H]3CN4S(N)(=O)=O)c12 [Compound 44, (1S,4S,5S)-5-((2-Cyclopropyl-6-isopropyl-3-methoxy-7-oxopyrazolo[1,5-a]pyrimidin-4(7H)-yl)methyl)-2-azabicyclo[2.2.1]heptane-2-sulfonamide] | – | 3.0 | 4.2 | 0.00501
22 | CC(C)c1cn(C[C@H]2C[C@H]3C[C@@H]2CN3S(N)(=O)=O)c2c(C#N)c(C3CC3)nn2c1=O [Compound 45, (1S,4S,5S)-5-((3-Cyano-2-cyclopropyl-6-isopropyl-7-oxopyrazolo[1,5-a]pyrimidin-4(7H)-yl)methyl)-2-azabicyclo[2.2.1]heptane-2-sulfonamide] | – | – | – | 0.00631
23 | CC(C)c1cn(Cc2ccc3c(c2)CCS3(=N)=O)c2nc(C3CC3)nn2c1=O (centres unmarked) [Compound 48, 2-Cyclopropyl-4-((1-imino-1-oxido-2,3-dihydro-1H-1l4-benzo[b]thiophen-5-yl)methyl)-6-isopropyl-[1,2,4]triazolo[1,5-a]pyrimidin-7(4H)-one] | – | – | – | 0.0316
24 | Cc1nc2n(Cc3ccc4c(c3)CCCS4(=N)=O)cc(C(C)C)c(=O)n2n1 (centres unmarked) [Compound 52, 4-((1-Imino-1-oxido-1/4-thiochroman-6-yl)methyl)-6-isopropyl-2-methyl-[1,2,4]triazolo[1,5-a]pyrimidin-7(4H)-one] | – | – | – | 0.126
25 | CC(C)c1cn(Cc2ccc3c(c2)OCCS3(=N)=O)c2nc(C3CC3)nn2c1=O (centres unmarked) [Compound 53, 2-Cyclopropyl-4-((4-imino-4-oxido-3,4-dihydro-2H-4lambda4-benzo[b][1,4]oxathiin-7-yl)methyl)-6-isopropyl-[1,2,4]triazolo[1,5-a]pyrimidin-7(4H)-one] | – | – | – | 0.1
26 | CC(C)c1cn(Cc2ccc(S(C)(=N)=O)cc2)c2cc(C3CC3)nn2c1=O (centres unmarked) [Compound 57, 2-Cyclopropyl-6-isopropyl-4-(4-(S-methylsulfonimidoyl)benzyl)pyrazolo[1,5-a]pyrimidin-7(4H)-one] | – | <1 | 3.0 | –
27 | Cc1cc(S(C)(=N)=O)ccc1Cn1cc(C(C)C)c(=O)n2nc(C3CC3)cc12 (centres unmarked) [Compound 61, 2-Cyclopropyl-6-isopropyl-4-(2-methyl-4-(S-methylsulfonimidoyl)benzyl)pyrazolo[1,5-a]pyrimidin-7(4H)-one] | – | 3.0 | 3.8 | 0.00398
28 | CC(C)c1cn(Cc2ccc(S(C)(=N)=O)cc2F)c2cc(C3CC3)nn2c1=O (centres unmarked) [Compound 62, 2-Cyclopropyl-4-(2-fluoro-4-(S-methylsulfonimidoyl)benzyl)-6-isopropylpyrazolo[1,5-a]pyrimidin-7(4H)-one] | – | <1 | 3.0 | –
29 | CC(C)c1cn(Cc2ccc(S(C)(=N)=O)c(F)c2)c2nc(C3CC3)nn2c1=O (centres unmarked) [Compound 63, 2-Cyclopropyl-4-(3-fluoro-4-(S-methylsulfonimidoyl)benzyl)-6-isopropyl-[1,2,4]triazolo[1,5-a]pyrimidin-7(4H)-one] | – | – | – | 0.01
30 | CC(C)c1cn(Cc2ccc(S(=N)(=O)C(C)C)cc2)c2nc(C3CC3)nn2c1=O (centres unmarked) [Compound 64, 2-Cyclopropyl-6-isopropyl-4-(4-(propan-2-ylsulfonimidoyl)benzyl)-[1,2,4]triazolo[1,5-a]pyrimidin-7(4H)-one] | – | – | – | 0.00794
